{"source": "the supplement of paper PMC10307832", "assay_in_all_cases": "relative viability (nuclei count vs DMSO), 5 days (fraction); higher = more cells survive", "key": {"COR-L23": {"system": "COR-L23", "in_short": "(§1)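 Five library-drug doses in √10 steps were combined with a fixed anchor-drug dose, or a single drug was given alone, by pin tool to lung cancer cell lines in 1536-well plates the day after seeding. Nuclei were stained and counted after 5 days. Relative viability is the nuclei count in treated wells over that in vehicle wells, taken as the median of duplicate plates.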"}, "ChaGo-K-1": {"system": "ChaGo-K-1", "in_short": "as §1"}, "EMC-BAC-2": {"system": "EMC-BAC-2", "in_short": "as §1"}, "HARA": {"system": "HARA", "in_short": "as §1"}, "HCC-15": {"system": "HCC-15", "in_short": "as §1"}, "HCC-366": {"system": "HCC-366", "in_short": "as §1"}, "HCC-78": {"system": "HCC-78", "in_short": "as §1"}, "HOP-62": {"system": "HOP-62", "in_short": "as §1"}, "LC-2-ad": {"system": "LC-2-ad", "in_short": "as §1"}, "NCI-H1395": {"system": "NCI-H1395", "in_short": "as §1"}, "NCI-H1793": {"system": "NCI-H1793", "in_short": "as §1"}, "NCI-H1944": {"system": "NCI-H1944", "in_short": "as §1"}, "NCI-H1993": {"system": "NCI-H1993", "in_short": "as §1"}, "NCI-H2023": {"system": "NCI-H2023", "in_short": "as §1"}, "NCI-H2126": {"system": "NCI-H2126", "in_short": "as §1"}, "NCI-H2228": {"system": "NCI-H2228", "in_short": "as §1"}, "NCI-H23": {"system": "NCI-H23", "in_short": "as §1"}, "NCI-H2405": {"system": "NCI-H2405", "in_short": "as §1"}, "NCI-H838": {"system": "NCI-H838", "in_short": "as §1"}, "SK-LU-1": {"system": "SK-LU-1", "in_short": "as §1"}}, "data": [{"smiles": "COc1nc(C)cnc1NS(=O)(=O)c1cccnc1-c1ccc(-c2nnco2)cc1", "note": "[Zibotentan] + CC1(C)CCC(c2ccc(Cl)cc2)=C(CN2CCN(c3ccc(C(=O)NS(=O)(=O)c4ccc(N[C@H](CCN5CCOCC5)CSc5ccccc5)c(S(=O)(=O)C(F)(F)F)c4)cc3)CC2)C1 [Navitoclax] (partner 0.5 µM)", "values": [{"measurement": "relative viability", "setting": "COR-L23; first compound 0.08 µM", "result": 1.03}, {"measurement": "relative viability", "setting": "COR-L23; first compound 0.253 µM", "result": 1.08}, {"measurement": "relative viability", "setting": "COR-L23; first compound 0.8 µM", "result": 1.07}, {"measurement": "relative viability", "setting": "COR-L23; first compound 2.53 µM", "result": 1.01}, {"measurement": "relative viability", "setting": "ChaGo-K-1; first compound 0.08 µM", "result": 0.95}, {"measurement": "relative viability", "setting": "ChaGo-K-1; first compound 0.8 µM", "result": 0.695}, {"measurement": "relative viability", "setting": "ChaGo-K-1; first compound 2.53 µM", "result": 0.888}, {"measurement": "relative viability", "setting": "EMC-BAC-2; first compound 0.08 µM", "result": 1.11}, {"measurement": "relative viability", "setting": "EMC-BAC-2; first compound 0.253 µM", "result": 1.17}, {"measurement": "relative viability", "setting": "EMC-BAC-2; first compound 0.8 µM", "result": 1.18}, {"measurement": "relative viability", "setting": "EMC-BAC-2; first compound 2.53 µM", "result": 1.19}, {"measurement": "relative viability", "setting": "HARA; first compound 0.08 µM", "result": 1.2}, {"measurement": "relative viability", "setting": "HARA; first compound 0.253 µM", "result": 1.12}, {"measurement": "relative viability", "setting": "HARA; first compound 0.8 µM", "result": 1.11}, {"measurement": "relative viability", "setting": "HARA; first compound 2.53 µM", "result": 1.11}, {"measurement": "relative viability", "setting": "HCC-15; first compound 0.08 µM", "result": 0.648}, {"measurement": "relative viability", "setting": "HCC-15; first compound 0.253 µM", "result": 0.656}, {"measurement": "relative viability", "setting": "HCC-15; first compound 0.8 µM", "result": 0.765}, {"measurement": "relative viability", "setting": "HCC-15; first compound 2.53 µM", "result": 0.698}, {"measurement": "relative viability", "setting": "HCC-366; first compound 0.08 µM", "result": 1.12}, {"measurement": "relative viability", "setting": "HCC-366; first compound 0.253 µM", "result": 1.14}, {"measurement": "relative viability", "setting": "HCC-366; first compound 0.8 µM", "result": 1.15}, {"measurement": "relative viability", "setting": "HCC-366; first compound 2.53 µM", "result": 1.06}, {"measurement": "relative viability", "setting": "HCC-78; first compound 0.08 µM", "result": 0.859}, {"measurement": "relative viability", "setting": "HCC-78; first compound 0.253 µM", "result": 0.687}, {"measurement": "relative viability", "setting": "HCC-78; first compound 0.8 µM", "result": 0.664}, {"measurement": "relative viability", "setting": "HCC-78; first compound 2.53 µM", "result": 0.764}, {"measurement": "relative viability", "setting": "HOP-62; first compound 0.08 µM", "result": 1.06}, {"measurement": "relative viability", "setting": "HOP-62; first compound 0.253 µM", "result": 1.08}, {"measurement": "relative viability", "setting": "HOP-62; first compound 0.8 µM", "result": 0.99}, {"measurement": "relative viability", "setting": "HOP-62; first compound 2.53 µM", "result": 1}, {"measurement": "relative viability", "setting": "LC-2-ad; first compound 0.08 µM", "result": 0.36}, {"measurement": "relative viability", "setting": "LC-2-ad; first compound 0.253 µM", "result": 0.386}, {"measurement": "relative viability", "setting": "LC-2-ad; first compound 0.8 µM", "result": 0.533}, {"measurement": "relative viability", "setting": "LC-2-ad; first compound 2.53 µM", "result": 0.516}, {"measurement": "relative viability", "setting": "NCI-H1395; first compound 0.08 µM", "result": 1.54}, {"measurement": "relative viability", "setting": "NCI-H1395; first compound 0.253 µM", "result": 1.03}, {"measurement": "relative viability", "setting": "NCI-H1395; first compound 0.8 µM", "result": 1.07}, {"measurement": "relative viability", "setting": "NCI-H1395; first compound 2.53 µM", "result": 1.12}, {"measurement": "relative viability", "setting": "NCI-H1793; first compound 0.08 µM", "result": 0.506}, {"measurement": "relative viability", "setting": "NCI-H1793; first compound 0.253 µM", "result": 0.405}, {"measurement": "relative viability", "setting": "NCI-H1793; first compound 0.8 µM", "result": 0.414}, {"measurement": "relative viability", "setting": "NCI-H1793; first compound 2.53 µM", "result": 0.486}, {"measurement": "relative viability", "setting": "NCI-H1944; first compound 0.08 µM", "result": 1.06}, {"measurement": "relative viability", "setting": "NCI-H1944; first compound 0.253 µM", "result": 1.07}, {"measurement": "relative viability", "setting": "NCI-H1944; first compound 0.8 µM", "result": 0.977}, {"measurement": "relative viability", "setting": "NCI-H1944; first compound 2.53 µM", "result": 1.03}, {"measurement": "relative viability", "setting": "NCI-H1993; first compound 0.253 µM", "result": 0.955}, {"measurement": "relative viability", "setting": "NCI-H1993; first compound 0.8 µM", "result": 0.813}, {"measurement": "relative viability", "setting": "NCI-H1993; first compound 2.53 µM", "result": 0.956}, {"measurement": "relative viability", "setting": "NCI-H2023; first compound 0.08 µM", "result": 1.05}, {"measurement": "relative viability", "setting": "NCI-H2023; first compound 0.253 µM", "result": 0.922}, {"measurement": "relative viability", "setting": "NCI-H2023; first compound 0.8 µM", "result": 1.01}, {"measurement": "relative viability", "setting": "NCI-H2023; first compound 2.53 µM", "result": 1.1}, {"measurement": "relative viability", "setting": "NCI-H2126; first compound 0.08 µM", "result": 0.876}, {"measurement": "relative viability", "setting": "NCI-H2126; first compound 0.253 µM", "result": 0.796}, {"measurement": "relative viability", "setting": "NCI-H2126; first compound 0.8 µM", "result": 0.724}, {"measurement": "relative viability", "setting": "NCI-H2126; first compound 2.53 µM", "result": 0.883}, {"measurement": "relative viability", "setting": "NCI-H2228; first compound 0.08 µM", "result": 0.942}, {"measurement": "relative viability", "setting": "NCI-H2228; first compound 0.253 µM", "result": 0.85}, {"measurement": "relative viability", "setting": "NCI-H2228; first compound 0.8 µM", "result": 0.685}, {"measurement": "relative viability", "setting": "NCI-H2228; first compound 2.53 µM", "result": 1.44}, {"measurement": "relative viability", "setting": "NCI-H23; first compound 0.08 µM", "result": 0.906}, {"measurement": "relative viability", "setting": "NCI-H23; first compound 0.253 µM", "result": 0.773}, {"measurement": "relative viability", "setting": "NCI-H23; first compound 0.8 µM", "result": 0.872}, {"measurement": "relative viability", "setting": "NCI-H23; first compound 2.53 µM", "result": 0.853}, {"measurement": "relative viability", "setting": "NCI-H2405; first compound 0.08 µM", "result": 0.904}, {"measurement": "relative viability", "setting": "NCI-H2405; first compound 0.253 µM", "result": 0.725}, {"measurement": "relative viability", "setting": "NCI-H2405; first compound 0.8 µM", "result": 0.921}, {"measurement": "relative viability", "setting": "NCI-H2405; first compound 2.53 µM", "result": 1.01}, {"measurement": "relative viability", "setting": "NCI-H838; first compound 0.08 µM", "result": 1.15}, {"measurement": "relative viability", "setting": "NCI-H838; first compound 0.253 µM", "result": 1.1}, {"measurement": "relative viability", "setting": "NCI-H838; first compound 0.8 µM", "result": 1.18}, {"measurement": "relative viability", "setting": "NCI-H838; first compound 2.53 µM", "result": 1.24}, {"measurement": "relative viability", "setting": "SK-LU-1; first compound 0.08 µM", "result": 0.911}, {"measurement": "relative viability", "setting": "SK-LU-1; first compound 0.253 µM", "result": 0.683}, {"measurement": "relative viability", "setting": "SK-LU-1; first compound 0.8 µM", "result": 1.04}, {"measurement": "relative viability", "setting": "SK-LU-1; first compound 2.53 µM", "result": 0.781}]}]}
